# Test results from PMC3995007, “GTP binding controls complex formation by the human ROCO protein MASL1” (The Febs Journal, 2013).
# Tests used:
# MASL1 [1] = molecular target: T1, MASL1 (Homo sapiens, UniProt Q9Y4C4); assay: size exclusion chromatography of lysate, shift between HMW and LMW complex, dot blot; format: biochemical; conditions: 200 µM GDP in HEK293T lysate and mobile phase, pH 7.5; indirect read-out of binding, K422A used as control
# T1 construct: gene MFHAS1; overexpressed in HEK293T, clarified lysate; plasmid from Genecopoeia
# T1 sequence (Q9Y4C4 2-1052): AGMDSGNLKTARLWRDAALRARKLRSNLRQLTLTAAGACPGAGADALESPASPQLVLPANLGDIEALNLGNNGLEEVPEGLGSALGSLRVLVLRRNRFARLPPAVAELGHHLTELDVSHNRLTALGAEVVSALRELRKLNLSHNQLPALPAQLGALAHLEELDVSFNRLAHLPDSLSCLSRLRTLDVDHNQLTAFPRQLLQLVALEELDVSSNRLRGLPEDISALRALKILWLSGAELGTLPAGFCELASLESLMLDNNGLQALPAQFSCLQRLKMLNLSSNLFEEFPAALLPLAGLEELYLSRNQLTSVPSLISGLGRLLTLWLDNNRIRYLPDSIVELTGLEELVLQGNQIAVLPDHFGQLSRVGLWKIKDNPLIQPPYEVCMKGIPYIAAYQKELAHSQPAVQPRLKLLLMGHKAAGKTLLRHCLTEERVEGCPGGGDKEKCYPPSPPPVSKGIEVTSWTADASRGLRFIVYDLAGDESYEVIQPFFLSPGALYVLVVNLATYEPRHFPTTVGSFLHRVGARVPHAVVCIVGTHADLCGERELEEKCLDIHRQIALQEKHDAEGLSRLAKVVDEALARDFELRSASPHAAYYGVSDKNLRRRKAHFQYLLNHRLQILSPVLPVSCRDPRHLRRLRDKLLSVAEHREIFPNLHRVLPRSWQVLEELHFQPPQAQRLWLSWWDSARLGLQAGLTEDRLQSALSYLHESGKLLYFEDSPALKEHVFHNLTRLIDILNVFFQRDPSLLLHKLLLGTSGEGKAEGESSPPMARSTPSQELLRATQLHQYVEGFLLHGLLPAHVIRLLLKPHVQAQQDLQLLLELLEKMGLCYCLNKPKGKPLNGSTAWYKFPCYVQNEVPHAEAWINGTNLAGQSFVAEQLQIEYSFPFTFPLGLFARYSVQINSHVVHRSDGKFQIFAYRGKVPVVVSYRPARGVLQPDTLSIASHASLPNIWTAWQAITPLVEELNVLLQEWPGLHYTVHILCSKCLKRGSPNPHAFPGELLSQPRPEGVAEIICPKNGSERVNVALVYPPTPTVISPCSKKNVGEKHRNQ
# MASL1 [2] = molecular target: T1, MASL1; assay: pulldown on GTP-sepharose beads, competition with free GTP, immunoblot; format: binding; conditions: clarified HEK293T lysate, 4 °C, 2 h; free GTP 10 mM; immobilised GTP; ROC domain site
smiles,measurement,setting,value
Nc1nc2c(ncn2[C@@H]2O[C@H](COP(=O)(O)OP(=O)(O)O)[C@@H](O)[C@H]2O)c(=O)[nH]1 [GDP],"size exclusion chromatography of lysate, shift between HMW and LMW complex, dot",MASL1 [1],GDP shifted the equilibrium between LMW and HMW complex towards the latter
Nc1nc2c(ncn2[C@@H]2O[C@H](COP(=O)(O)OP(=O)(O)OP(=O)(O)O)[C@@H](O)[C@H]2O)c(=O)[nH]1 [GTP],"pulldown on GTP-sepharose beads, competition with free GTP, immunoblot",MASL1 [2],Wild type HA-tagged MASL1 was able to bind GTP immobilized on sepharose beads
